This is an account of results in PubChem BioAssay AID602166 (The Scripps Research Institute Molecular Screening Center, 2012).

Molecules are shown by their SMILES. The source made the active and inactive calls. How the calls were made is not given here.

Sequence of Nuclear receptor coactivator 3 (Homo sapiens) (Q9Y6Q9 whole entry, looked up): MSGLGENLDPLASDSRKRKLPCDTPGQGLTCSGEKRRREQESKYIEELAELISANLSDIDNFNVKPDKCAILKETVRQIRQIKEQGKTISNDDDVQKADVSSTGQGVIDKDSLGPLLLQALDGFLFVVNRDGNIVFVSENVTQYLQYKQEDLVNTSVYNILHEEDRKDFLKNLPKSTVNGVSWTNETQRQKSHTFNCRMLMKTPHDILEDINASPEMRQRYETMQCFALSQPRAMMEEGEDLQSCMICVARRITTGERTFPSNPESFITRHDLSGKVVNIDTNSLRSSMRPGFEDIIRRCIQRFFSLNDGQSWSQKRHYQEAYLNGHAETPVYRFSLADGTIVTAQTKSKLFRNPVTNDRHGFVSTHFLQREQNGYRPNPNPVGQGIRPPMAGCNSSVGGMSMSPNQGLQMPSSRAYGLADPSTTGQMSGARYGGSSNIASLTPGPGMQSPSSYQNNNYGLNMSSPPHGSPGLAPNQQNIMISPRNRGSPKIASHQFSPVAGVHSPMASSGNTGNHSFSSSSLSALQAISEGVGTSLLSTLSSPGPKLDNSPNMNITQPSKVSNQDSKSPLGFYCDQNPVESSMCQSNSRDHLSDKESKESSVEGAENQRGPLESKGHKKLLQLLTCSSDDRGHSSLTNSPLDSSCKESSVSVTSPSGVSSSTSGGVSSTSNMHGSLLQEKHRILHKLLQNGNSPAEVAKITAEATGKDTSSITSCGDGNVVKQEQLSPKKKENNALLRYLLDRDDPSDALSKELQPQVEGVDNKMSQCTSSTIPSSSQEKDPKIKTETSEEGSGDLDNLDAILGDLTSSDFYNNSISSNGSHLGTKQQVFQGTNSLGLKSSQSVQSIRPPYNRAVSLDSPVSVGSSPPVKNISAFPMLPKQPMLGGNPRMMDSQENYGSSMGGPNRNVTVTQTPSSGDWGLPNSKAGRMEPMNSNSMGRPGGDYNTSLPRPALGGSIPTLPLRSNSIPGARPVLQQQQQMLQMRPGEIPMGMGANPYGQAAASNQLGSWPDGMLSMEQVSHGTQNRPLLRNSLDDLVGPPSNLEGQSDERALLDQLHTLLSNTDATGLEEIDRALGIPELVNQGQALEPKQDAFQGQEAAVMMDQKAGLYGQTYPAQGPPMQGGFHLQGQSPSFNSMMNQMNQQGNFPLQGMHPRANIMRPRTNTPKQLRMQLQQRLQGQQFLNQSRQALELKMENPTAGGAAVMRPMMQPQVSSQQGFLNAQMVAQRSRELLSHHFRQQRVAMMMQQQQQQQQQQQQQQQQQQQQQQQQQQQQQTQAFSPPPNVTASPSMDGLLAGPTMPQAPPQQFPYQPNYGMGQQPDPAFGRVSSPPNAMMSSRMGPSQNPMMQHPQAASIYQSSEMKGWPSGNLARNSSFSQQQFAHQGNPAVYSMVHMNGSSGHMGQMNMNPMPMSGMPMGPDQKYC

This experiment addresses Nuclear receptor coactivator 3 (Homo sapiens) (UniProt Q9Y6Q9). The experiment in a line: SRC3 coactivator transcriptional activity inhibitors, dose response, cell-based, luminescence (AID 602166).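 Further: potency for reduction of SRC3 reporter signal so compounds are inhibitors.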 As to conditions: SRC3 luciferase reporter cell assay. On the technique in general: A reporter such as luciferase makes a cellular process visible.
As a reminder, the IC50 is the midpoint of a concentration-inhibition curve. Consider `O=C(CCl)NC(Cc1ccccc1)c1ccccc1` (stereo unspecified), for which the IC50 was 5.58 µM. For `COc1ccc(C)cc1NS(=O)(=O)c1ccc(NC(=O)CN(c2cc([N+](=O)[O-])ccc2C)S(C)(=O)=O)cc1`, the IC50 entry is “inactive”. As to `Cc1cc(C(=O)COC(=O)C2=COCCO2)c(C)n1-c1ccccc1`, the IC50 is > 35.9 µM (inactive). Under `CS(=O)(=O)c1ccc(Sc2nc3ccccc3s2)c([N+](=O)[O-])c1` stands > 35.9 µM (inactive); under `O=C(N/N=C(\c1ccccc1)c1ccccn1)c1ccccc1Cl`, “inactive”. For `Nc1nc(=S)c2ncn([C@@H]3O[C@H](CO)[C@@H](O)[C@H]3O)c2[nH]1` the value was 2.55 µM; for `c1ccc2c(c1)Nc1ccncc1S2`, “inactive”; for `C=CC[n+]1c(-c2ccc(C)cc2)csc1Nc1ccc(NC(C)=O)cc1`, > 35.9 µM (inactive). Under `Cc1c(CC(=O)NCCCC(=O)O)c(=O)oc2cc3c(cc12)CCC(C)(C)O3` stands 7.52 µM. Consider `O=C(c1ccncc1)N(Cc1cc2ccccc2[nH]c1=O)C1CCCCC1`, for which the IC50 was 5.82 µM. Under `Nc1ccc(Oc2ccccc2-c2ccccc2)cc1` stands “inactive”; under `COc1cc(C(=O)N/N=C(\c2ccccc2)c2ccccn2)cc(OC)c1OC`, “inactive”; under `COc1cc2[nH]c3c(Cl)ncnc3c2cc1OC`, > 35.9 µM (inactive). In the case of `Cc1ccc(C2=NN(C(=O)CCl)C(c3cccs3)C2)o1` (stereo unspecified), the IC50 result was “inactive”. Under `O=C(CCl)Nc1cccc(-c2cnc3ccccc3n2)c1` stands “inactive”; under `CC(C)(C)c1ccc(Oc2ccc(N)cn2)cc1`, “inactive”. Under `Cc1cccc(CN2CCN(C(=O)CCl)CC2)c1` stands > 35.9 µM (inactive); under `O=c1[nH]c(O)c(N=Nc2ccc3c(c2)OCCO3)c(=O)[nH]1`, > 35.9 µM (inactive). Under `NC(=S)N/N=C1\CCSc2ccc(Cl)cc21` stands 3.94 µM; under `NNC(=O)c1cc2ccccc2cc1O`, 7.35 µM; under `COc1ccc(Nc2ccncc2[N+](=O)[O-])cc1`, 5.32 µM. In the case of `COc1cc2oc(=O)cc(-c3ccc(-c4ccc(CO)cc4)cc3)c2c(OC)c1OC`, the IC50 is 4.57 µM. For `Nc1ccc(-c2cc3ccccc3oc2=O)cc1` the value was 8.26 µM.

`COc1ccc(OC)c(N/C=C/C(=O)c2ccccc2)c1`: the IC50 result is “inactive”.

Turning to `C(=N\Nc1ccc2ccccc2n1)/c1ccc2c(c1)OCCO2`, the IC50 entry is “inactive”.

In the case of `O=C(Nc1ccc(OCC(=O)N2CCOCC2)cc1)c1cncc(Br)c1`, the IC50 was 4.43 µM. For `CCOc1ccccc1-n1c(SCC(=O)Nc2ccccc2C(=O)O)nc2ccccc2c1=O` the value was > 35.9 µM (inactive); for `CCOc1ccc(Nc2cc(C)nc(-n3nc(C)cc3C)n2)cc1`, > 35.9 µM (inactive); for `C#CC(=O)N(c1cc(OC)ccc1OC)C(C(=O)NC1CCCC1)c1cccs1` (stereo unspecified), > 35.9 µM (inactive).

For `Cc1ccc(N(CCC#N)C(=O)CCl)cc1C`, the IC50 was 8.64 µM. Under `CCCC(=O)NC(c1ccc(Cl)cc1Cl)c1ccc2cccnc2c1O` (stereo unspecified) stands “inactive”; under `O=C(COC(=O)c1ccc[nH]c1=O)Nc1ccc(N2CCCCC2)cc1`, 2.9 µM.

Consider `COc1cccc(-c2nnc3sc(C4CCCCC4)nn23)c1`, for which the IC50 is 1.73 µM.

Take `CCOc1ccc(/C=C2\SC(=S)N(CCC(=O)O)C2=O)cc1`: the IC50 is > 35.9 µM (inactive). Turning to `O=c1[nH]c2ccccc2n1C1CCN(C(c2cccc3ccccc23)c2nnnn2-c2ccc3c(c2)OCCO3)CC1` (stereo unspecified), the IC50 result was “inactive”. Under `COc1cccc(/C=N/Nc2cc(-n3nc(C)cc3-c3ccccc3)ncn2)c1O` stands 4.12 µM; under `CN(Cc1cnc2nc(N)nc(N)c2n1)c1ccc(C(=O)NC(CCC(=O)O)C(=O)O)cc1` (stereo unspecified), > 35.9 µM (inactive); under `CCCC(=O)NC(c1ccc(Cl)cc1)c1ccc2cccnc2c1O` (stereo unspecified), 4.7 µM. Under `COc1ccc(-c2nsc3c(N4CCCCC4)ncnc23)cc1` stands > 35.9 µM (inactive); under `Cc1ccc(/C=C2\SC(=S)N(CCCC(=O)NC3CCCC3)C2=O)cc1`, 1.76 µM; under `COc1ccccc1N(C(=O)CCl)c1cn(C(C)=O)c2ccccc12`, 8.1 µM.

In the case of `CN(C)c1ccc(/C=C/c2ccc3ccccc3n2)cc1`, the IC50 is 5.65 µM. For `Cc1ccc(C(=O)Nc2cnc3ccccc3c2)cc1` the value was “inactive”; for `CC(=O)NC(c1cc(Cl)c2cccnc2c1O)C(C)C` (stereo unspecified), 4.54 µM. With `c1csc(Cc2nn3c(-c4ccncc4)nnc3s2)c1`, the IC50 is 8.11 µM. For `CC(=O)c1cccc(-c2csc3ncnc(Sc4nnnn4C)c23)c1` the value was “inactive”; for `C=CCOc1ccc(/C=C2\SC(=S)N(CCC(=O)O)C2=O)cc1`, “inactive”.

Take `COc1cc2c(ccc3cc(OC)c(OC)c(O)c32)cc1O`: the IC50 entry was “inactive”. Under `NC(=O)c1sc2nc3c(c(-c4ccco4)c2c1N)CCC3` stands 1.12 µM; under `CC(=O)c1ccc(Nc2c3c(nc4ccccc24)CCCC3)cc1`, “inactive”. Regarding `COc1ccc(CCNC(=O)c2nnn(-c3ccc4c(c3)OCCO4)c2N)cc1OC`, the IC50 was > 35.9 µM (inactive). Under `c1cc2[nH]snc2c2nc(C3CC3)nc12` stands 1.62 µM; under `CN1CCN(c2ccc(NC(=O)N3CCc4ccccc43)cc2)CC1`, > 35.9 µM (inactive). Under `CC(=O)Nc1ccc(SCC(=O)c2cc(C)n(-c3ccccc3)c2C)cc1` stands > 35.9 µM (inactive); under `COc1cc([C@@H]2c3cc4c(cc3[C@@H](O[C@@H]3O[C@@H]5CO[C@@H](C)O[C@H]5[C@H](O)[C@H]3O)[C@H]3COC(=O)[C@H]23)OCO4)cc(OC)c1O`, 2.48 µM. Regarding `Cc1ccc2nc(-c3ccncc3)c(NC3CCCC3)n2c1`, the IC50 result is “inactive”. Under `CC(C)(C)C(=O)Nc1ccc(N=Nc2ccccc2)cc1` stands > 35.9 µM (inactive); under `CNc1ncnc(Sc2nc(N)nc3nc[nH]c23)c1[N+](=O)[O-]`, 4.17 µM. Under `COc1ccc(C(C(=O)NC2CCCCC2)N(C(=O)CCl)c2ccc(OC)cc2)cc1` (stereo unspecified) stands 7.79 µM.

As for `Cc1ccc(N=Nc2ccc3ccccc3c2O)cc1`, the IC50 is > 35.9 µM (inactive).

In the case of `O=C(N/N=C\c1ccc([N+](=O)[O-])s1)c1cncc(Br)c1`, the IC50 was 5.46 µM. For `CCCNC(=O)c1nnsc1S(=O)(=O)c1ccc(Cl)cc1` the value was 8.04 µM; for `CN1C(=O)C2(C(C#N)=C(N)N(c3cc(Cl)cc(Cl)c3)C3=C2C(=O)CC(C)(C)C3)c2ccccc21` (stereo unspecified), 4.34 µM; for `Brc1ccc2ncc3ccccc3c2c1`, 8.02 µM. Under `CC(C)(C)n1ncc2c(=O)n(CC(=O)OCc3ccccc3)cnc21` stands > 35.9 µM (inactive); under `O=C(CCl)N(c1ccccc1)C1CCS(=O)(=O)C1` (stereo unspecified), 6.92 µM.

For the molecule `Cc1ccc2nc(C(F)(F)F)c(C#N)c(N)c2c1`, the IC50 result was “inactive”. For `Cc1cc(/C=C2\Cc3ccccc3C2=O)c(C)n1-c1ccccc1` the value was > 35.9 µM (inactive); for `CCOc1ccc(-c2cc(C)n3nc(C(N)=O)cc3n2)cc1`, 7.81 µM. For `NS(=O)(=O)c1ccc(Sc2nc3ccccc3s2)c([N+](=O)[O-])c1`, the IC50 entry was “inactive”. Under `COCCNC(=O)c1cc(-c2ccccn2)nc2ccc(S(=O)(=O)N3CCC(C)CC3)cc12` stands > 35.9 µM (inactive); under `COc1cccc(F)c1C(C[N+](=O)[O-])c1c(N)n(C)c(=O)n(C)c1=O` (stereo unspecified), “inactive”; under `C(=NNc1ccc2ccccc2n1)c1ccccn1`, “inactive”. For `COc1cc(C2c3cc4c(cc3C(OC3OC5COC(c6cccs6)OC5C(O)C3O)C3COC(=O)C23)OCO4)cc(OC)c1O` (stereo unspecified) the value was 0.093 µM; for `O=C(Nc1nc2ccccc2s1)C1c2ccccc2Oc2ccccc21`, 7.97 µM; for `COc1cc2c(cc1OC)C(C)N(C(=O)c1cccc([N+](=O)[O-])c1)CC2` (stereo unspecified), 7.21 µM. Regarding `C=CCOn1c(C)c(C(C)=O)c2c3nonc3ccc21`, the IC50 was 4.12 µM. For `O=c1[nH]c2ccccc2n1C1CCN(C(c2cc3ccccc3o2)c2nnnn2Cc2ccccc2)CC1` (stereo unspecified) the value was “inactive”. For `NC(=S)N/N=C1\CCOc2ccc(Cl)cc21` the value was 6.9 µM; for `Cc1cc(C(=O)CN2C(=O)c3ccccc3S2(=O)=O)c(C)n1C(C)C`, “inactive”. With `CCc1nc(N)nc(N)c1-c1ccc(Cl)c([N+](=O)[O-])c1`, the IC50 is 4.28 µM. Regarding `Cc1cccc(Oc2sc(C(=O)c3ccccc3)c(N)c2C#N)c1`, the IC50 is 8.09 µM.

On to `CN[C@H]1CCc2cc(OC)c(OC)c(OC)c2-c2ccc(OC)c(=O)cc21`, for which the IC50 was > 35.9 µM (inactive). For `COc1ccc(-n2cnc3c(sc4nccc(N(C)C)c43)c2=O)cc1` the value was 8.19 µM. Under `CN(C)c1ccc(CNC(=O)CCNS(=O)(=O)c2cc(Br)cnc2N)cc1` stands 4.34 µM; under `Fc1ccccc1-c1csc(=Nc2cccnc2)n1CCCn1ccnc1`, 5.27 µM. For `C[C@@H](C(=O)Nc1ccc2c(c1)OCCO2)n1c(=O)[nH]c2ccccc2c1=O` the value was > 35.9 µM (inactive). In the case of `O=C(N/N=C/c1cc(Br)c(Br)s1)c1ccncc1`, the IC50 was 8.67 µM. For `c1ccc(-c2noc(-c3ccc4ccccc4c3)n2)nc1` the value was 8.62 µM.

`CN(C)/C=C/C(=O)c1ccc2noc(-c3ccccc3)c2c1`: the IC50 was 3.72 µM. Turning to `O=S(=O)(c1ccc(F)cc1)c1snnc1-c1ccccc1`, the IC50 entry was “inactive”. Under `O=[N+]([O-])c1ccc(N(CCO)CCO)c2c1no[n+]2[O-]` stands 7.24 µM; under `O=C(CCl)N(c1ccccc1)C1CCCCC1`, 8.7 µM. Under `O=C(NCCc1ccccc1)c1ccc2c(c1)OCCO2` stands 9.59 µM; under `CC1CCN(C2=NC(=O)/C(=C/c3ccccc3F)S2)CC1`, > 35.9 µM (inactive); under `CC[C@@]1(O)C(=O)OCc2c1cc1n(c2=O)Cc2cc3c(NC(=O)CN)cccc3nc2-1`, 1.75 µM.
